We go through 17 compounds from US8106055B2, “Substituted amide compounds” (Gruenenthal GmbH, priority 2007, dated 2012).

Test [1] concerns the target T1, human bradykinin 1 receptor (B1R) (Homo sapiens, UniProt P46663).
T1 construct: expressed in transfected cells; host or cells: CHO K1 cells
T1 sequence (P46663 1-353): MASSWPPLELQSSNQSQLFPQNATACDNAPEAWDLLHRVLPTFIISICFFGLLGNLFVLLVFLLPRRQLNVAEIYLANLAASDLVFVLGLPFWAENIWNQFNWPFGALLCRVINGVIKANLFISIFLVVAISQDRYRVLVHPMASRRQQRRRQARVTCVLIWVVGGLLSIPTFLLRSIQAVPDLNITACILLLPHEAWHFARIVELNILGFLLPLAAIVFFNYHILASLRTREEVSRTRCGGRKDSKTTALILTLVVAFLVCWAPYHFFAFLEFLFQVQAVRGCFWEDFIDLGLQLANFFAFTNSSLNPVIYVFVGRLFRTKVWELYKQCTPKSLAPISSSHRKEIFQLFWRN
Description: Functional investigation on the human bradykinin 1 receptor (B1R), Ca2+ FLIPR assay in CHO K1 hB1R cells. The class given is cell-based. The method, boiled down:
(§1)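 Fluo-4 Ca2+ readout, peak fluorescence. Stable CHO K1 transfectants; compound pre-incubated 10-20 min, then EC80 agonist—Lys-Des-Arg9-BK for hB1R, Des-Arg9-BK for rB1R. % inhibition vs maximal inhibition; IC50 from multiple concentrations, duplicate/triplicate, ≥2 independent runs.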

Test [2] addresses T2, bradykinin 1 receptor (B1R) of the rat (Rattus norvegicus, UniProt P97583).
T2 construct: expressed in transfected cells; host or cells: CHO K1 cells
T2 sequence (P97583 1-337): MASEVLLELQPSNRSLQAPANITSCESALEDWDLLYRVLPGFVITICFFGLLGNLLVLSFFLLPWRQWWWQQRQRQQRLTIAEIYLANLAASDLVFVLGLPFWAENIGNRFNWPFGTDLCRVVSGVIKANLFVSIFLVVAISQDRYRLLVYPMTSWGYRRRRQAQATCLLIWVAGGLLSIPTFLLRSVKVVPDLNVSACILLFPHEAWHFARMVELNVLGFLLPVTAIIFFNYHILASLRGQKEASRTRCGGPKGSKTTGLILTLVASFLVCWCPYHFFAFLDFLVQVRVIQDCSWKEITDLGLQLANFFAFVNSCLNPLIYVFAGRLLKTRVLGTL
The test can be described thus: Functional investigation on the rat bradykinin 1 receptor (B1R), Ca2+ FLIPR assay in CHO K1 rB1R cells. The class given is cell-based. The method, boiled down: as §1

Where [3] appears, read: CHO-K1, B1R antagonism human, test substance 10 μM, Ca2+ FLIPR, CHO K1 hB1R cells, read-out: B1R Ant. h [10 μM] % Inhibition.
The mark [4] stands for this setting: CHO-K1, B1R antagonism rat, test substance 10 μM, Ca2+ FLIPR, CHO K1 rB1R cells, read-out: B1R Ant. r [10 μM] % Inhibition.

SMILES strings stand for the structures. Read-outs that look alike come from different tables or passages of the source.

As to `Cc1ccc(S(=O)(=O)N2CCC(OCC(=O)NCC3CCC(C(c4cccs4)N(C)C)CC3)C2)cc1` (stereo not shown) [Example 68, N-((4-((dimethylamino)(thiophen-2-yl)methyl)cyclohexyl)methyl)-2-(1-tosylpyrrolidin-3-yloxy)acetamide], the inhibition at 10 µM stood at 18% in test [1] (setting [3]) and 39% in test [2] (setting [4]).
Consider `COc1cc(C)c(S(=O)(=O)N(C)CCOCC(=O)NC2CCC(C(c3ccccc3)N(C)C)CC2)c(C)c1C` (stereo not shown) [Example 80, N-(4-((dimethylamino) (phenyl)methyl)cyclohexyl)-2-(2-(4-methoxy-N,2,3,6-tetramethylphenylsulfonamido)ethoxy)acetamide], for which the “B1R Ant. h [10 μM] % Inhibition” value in test [1] (B1R antagonism human, test substance 10 μM, Ca2+ FLIPR, CHO K1 hB1R cells) is given as 98%. Moreover, in test [2] (B1R antagonism rat, test substance 10 μM, Ca2+ FLIPR, CHO K1 rB1R cells), the “B1R Ant. r [10 μM] % Inhibition” value is reported as 6%.
Regarding `COc1cc(C)c(S(=O)(=O)N(C)CCOCC(=O)NCCC2CCC(C(c3cccs3)N(C)C)CC2)c(C)c1C` (stereo not shown) [Example 52, N-(2-(4-((dimethylamino)(thiophen-2-yl)methyl)cyclohexyl)ethyl)-2-(2-(4-methoxy-N,2,3,6-tetramethylphenylsulfonamido)ethoxy)acetamide], the inhibition at 10 µM in test [1] (setting [3]) stood at 103%; in test [2] (setting [4]), 53%.
Take `Cc1cc(C)c(S(=O)(=O)N2CCC(OCC(=O)NC3CCC(C(c4ccccc4)N(C)C)CC3)C2)c(C)c1` (stereo not shown) [Example 64, N-(4-((dimethylamino)(phenyl)methyl)cyclohexyl)-2-(1-(mesitylsulfonyl)pyrrolidin-3-yloxy)acetamide]: the inhibition at 10 µM turned out to be 60% in test [1] (setting [3]) and 16% in test [2] (setting [4]).
As to `COc1ccc(S(=O)(=O)N2Cc3ccccc3CC2COCC(=O)NC2CCC(C(c3cccs3)N(C)C)CC2)cc1` (stereo not shown) [Example 47, N-(4-((dimethylamino)(thiophen-2-yl)methyl)cyclohexyl)-2-((2-(4-methoxyphenylsulfonyl)-1,2,3,4-tetrahydroisoquinolin-3-yl)methoxy)acetamide], the values for the inhibition at 10 µM in test [1] (setting [3]) and in test [2] (setting [4]) were 24% and 36%, respectively.
Take `CN(C)C(c1cccc(F)c1)C1CCC(CNC(=O)COCCN(C)S(=O)(=O)c2c(Cl)cccc2Cl)CC1` (stereo not shown) [Example 72, 2-(2-(2,6-dichloro-N-methylphenylsulfonamido)ethoxy)-N-((4-((dimethylamino)(3-fluorophenyl)methyl)cyclohexyl)methyl)acetamide]: the inhibition at 10 µM in test [1] (setting [3]) worked out at 94%; in test [2] (setting [4]), 38%.
For the compound `CN(C)C(c1cccs1)C1CCC(CNC(=O)COCCN(C)S(=O)(=O)c2ccc(Cl)cc2)CC1` (stereo not shown) [Example 55, 2-(2-(4-chloro-N-methylphenylsulfonamido)ethoxy)-N-((4-((dimethylamino)(thiophen-2-yl)methyl)cyclohexyl)methyl)acetamide], the values for the inhibition at 10 µM in test [1] (setting [3]) and in test [2] (setting [4]) were 11% and 34%, respectively.
As for `COc1cc(C)c(S(=O)(=O)N2CCC(CCOCC(=O)NCCC3CCC(C(c4cccs4)N(C)C)CC3)CC2)c(C)c1C` (stereo not shown) [Example 75, N-(2-(4-((dimethylamino)(thiophen-2-yl)methyl)cyclohexyl)ethyl)-2-(2-(1-(4-methoxy-2,3,6-trimethylphenylsulfonyl)piperidin-4-yl)ethoxy)acetamide], the inhibition at 10 µM in test [1] (setting [3]) and in test [2] (setting [4]) was 15% in each case.
In the case of `COc1cc(C)c(S(=O)(=O)N2CCCC(OCC(=O)NCC3CCC(C(c4cccs4)N(C)C)CC3)C2)c(C)c1C` (stereo not shown) [Example 60, N-((4-((dimethylamino)(thiophen-2-yl)methyl)cyclohexyl)methyl)-2-(1-(4-methoxy-2,3,6-trimethylphenylsulfonyl)piperidin-3-yloxy)acetamide], the figures for the inhibition at 10 µM in test [1] (setting [3]) and in test [2] (setting [4]) were 28% and 11%, respectively.
Take `Cc1ccc(S(=O)(=O)N(C)CCOCC(=O)NCC2CCC(C(c3cccs3)N(C)C)CC2)cc1` (stereo not shown) [Example 4, N-((4-((dimethylamino)(thiophen-2-yl)methyl)cyclohexyl)methyl)-2-(2-(N,4-dimethylphenylsulfonamido)ethoxy)acetamide]: the values for the inhibition at 10 µM in test [1] (setting [3]) and in test [2] (setting [4]) were 2% and 18%, respectively.
Turning to `COc1ccc(S(=O)(=O)N2Cc3ccccc3CC2COCC(=O)NC2CCC(C(c3ccccc3)N(C)C)CC2)cc1` (stereo not shown) [Example 38, N-(4-((dimethylamino)(phenyl)methyl)cyclohexyl)-2-((2-(4-methoxyphenylsulfonyl)-1,2,3,4-tetrahydroisoquinolin-3-yl)methoxy)acetamide], the inhibition at 10 µM in test [1] (setting [3]) was determined as 45%; in test [2] (setting [4]), 46%.
As for `CN(C)C(c1ccccc1)C1CCC(CNC(=O)COCCN(C)S(=O)(=O)c2ccc(OC(F)(F)F)cc2)CC1` (stereo not shown) [Example 53, N-((4-((dimethylamino)(phenyl)methyl)cyclohexyl)methyl)-2-(2-(N-methyl-4-(trifluoromethoxy)phenylsulfonamido)ethoxy)acetamide], the inhibition at 10 µM in test [1] (setting [3]) is 19%; in test [2] (setting [4]), 41%.
As to `COc1ccc(S(=O)(=O)N2CCCCC2CCOCC(=O)NC2CCC(C(c3cccc(F)c3)N(C)C)CC2)cc1` (stereo not shown) [Example 62, N-(4-((dimethylamino)(3-fluorophenyl)methyl)cyclohexyl)-2-(2-(1-(4-methoxyphenylsulfonyl)piperidin-2-yl)ethoxy)acetamide], the inhibition at 10 µM in test [1] (setting [3]) came out at 40%; in test [2] (setting [4]), 32%.
Take `CN(C)C(c1cccs1)C1CCC(CNC(=O)COCCN(C)S(=O)(=O)c2ccc(F)cc2)CC1` (stereo not shown) [Example 56, N-((4-((dimethylamino)(thiophen-2-yl)methyl)cyclohexyl)methyl)-2-(2-(4-fluoro-N-methylphenylsulfonamido)ethoxy)acetamide]: the inhibition at 10 µM was 22% in test [1] (CHO-K1, read-out: B1R Ant. h [10 μM] % Inhibition) and -4% in test [2] (CHO-K1, read-out: B1R Ant. r [10 μM] % Inhibition).
For the compound `COc1cc(C)c(S(=O)(=O)N2CCC(OCC(=O)NCC3CCC(C(c4cccs4)N(C)C)CC3)C2)c(C)c1C` (stereo not shown) [Example 58, N-((4-((dimethylamino)(thiophen-2-yl)methyl)cyclohexyl)methyl)-2-(1-(4-methoxy-2,3,6-trimethylphenylsulfonyl)pyrrolidin-3-yloxy)acetamide], the inhibition at 10 µM in test [1] (setting [3]) was 52%; in test [2] (setting [4]), 5%.
The corresponding values for `CN(C)C(c1ccccc1)C1CCC(NC(=O)COC2CCCCC2N(C)S(=O)(=O)c2ccc(Cl)c(Cl)c2)CC1` (stereo not shown) [Example 39, 2-(2-(3,4-dichloro-N-methylphenylsulfonamido)cyclohexyloxy)-N-(4-((dimethylamino)(phenyl)methyl)cyclohexyl)acetamide] are 89% and -8%.
Take `COc1cc(C)c(S(=O)(=O)N2CCC(CCOCC(=O)NC3CCC(C(c4cccs4)N(C)C)CC3)CC2)c(C)c1C` (stereo not shown) [Example 5, N-(4-((dimethylamino)(thiophen-2-yl)methyl)cyclohexyl)-2-(2-(1-(4-methoxy-2,3,6-trimethylphenylsulfonyl)piperidin-4-yl)ethoxy)acetamide]: the inhibition at 10 µM is 24% in test [1] (setting [3]) and -3% in test [2] (setting [4]).

In general, inhibition refers to the change of the read-out against control, counted positive when it falls.
